These results are taken from patent publication US20230263822A1, “MODULATION OF FACTOR 11 EXPRESSION” (Ionis Pharmaceuticals, Inc., priority 2008, published 2023).

In data set [1] the test system is human Factor 11 mRNA. Description: Dose-dependent inhibition of human Factor 11 in HepG2 cells, lipofectin 2.34-75 nM (Example 5). The following applies: for percent inhibition of human Factor 11 mRNA relative to untreated control cells: ~16 hours. The class given is cell-based. The protocol:
(§1) Cells were plated at a density of 10,000 cells per well and transfected using lipofectin reagent with 2.34 nM, 4.69 nM, 9.375 nM, 18.75 nM, 37.5 nM, and 75 nM concentrations of antisense oligonucleotide, as specified in Table 11. After a treatment period of approximately 16 hours, RNA was isolated from the cells and human Factor 11 mRNA levels were measured by quantitative real-time PCR. Human Factor 11 primer probe set RTS 2966 was used to measure mRNA levels. Factor 11 mRNA levels were adjusted according to total RNA content, as measured by RIBOGREEN. Results are presented as percent inhibition of human Factor 11, relative to untreated control cells.

For data set [2], the system named is human Factor 11 mRNA. Kind of data set: Dose-dependent inhibition of human Factor 11 in cyano primary hepatocytes, electroporation (Example 6). The class given is cell-based. To be noted: ~16 hours. The procedure:
Cells were plated at a density of 35,000 cells per well and transfected via electroporation with 0.74 nM, 2.2 nM, 6.7 nM, 20 nM, 60 nM, and 180 nM concentrations of antisense oligonucleotide, as specified in Table 13. After a treatment period of approximately 16 hours, RNA was isolated from the cells and human Factor 11 mRNA levels were measured by quantitative real-time PCR. Human Factor 11 primer probe set RTS 2966 was used to measure mRNA levels. Factor 11 mRNA levels were adjusted according to total RNA content, as measured by RIBOGREEN. Results are presented as percent inhibition of human Factor 11, relative to untreated control cells.

Data set [3] concerns human Factor 11 mRNA. Kind of data set: Dose-dependent inhibition of human Factor 11 in HepB3 cells, lipofectin (Example 7). Type of data set: cell-based. To be noted: for percent inhibition of Factor 11 mRNA relative to untreated control cells: ~16 hours. The procedure:
as §1, with “4,000” for “10,000”, “2.3” for “2.34”, “4.7” for “4.69”, “9.4” for “9.375”, “14.” for “11.”, “of” for “of human”

Data set [4] can be described thus: Tolerability in Sprague-Dawley rats: body weight and organ weight (Example 35). The class given is in vivo. The following applies: 50 mg/kg s.c. twice per week for 6 weeks; for Percent change: Body weight: percent change over the weights at the start of the study; for Percent change in organ weight: Kidney / Percent change in organ weight: Liver / Percent change in organ weight: Spleen: vs saline control, normalized to body weight. An excerpt: Urine samples were taken before the start of treatment.
The body weights are presented in Table 71 and are expressed as a percent change over the weights taken at the start of the study.

As a reminder, the IC50 is the concentration that gives 50% inhibition. A high value points to weaker potency. Regarding “416892 (antisense GCCCTTCATGTCTAGGTCCA; 3-14-3 chimeric gapmer, further chemistry not given here) [compound 416892]”, the IC50 in the data set with human Factor 11 mRNA [1] and in the data set with human Factor 11 mRNA [3] was 0.009 µM in each case. Also, the “percent inhibition of human Factor 11 mRNA relative to untreated control cells” value in the data set on human Factor 11 mRNA [1] (2.34 nM) was 14%; in the data set with human Factor 11 mRNA [1] (4.69 nM), 34%; with human Factor 11 mRNA [1] (9.375 nM), 49%; with human Factor 11 mRNA [1] (18.75 nM) it was 70%; with human Factor 11 mRNA [1] (37.5 nM), 84%; in the data set on human Factor 11 mRNA [1] (75 nM), 93%. For the same substance, the “percent inhibition of human Factor 11 mRNA relative to untreated control cells” value with human Factor 11 mRNA [2] (0.74 nM) amounted to 20%; with human Factor 11 mRNA [2] (2.2 nM) it was 20%; with human Factor 11 mRNA [2] (6.7 nM), 43%; in the data set on human Factor 11 mRNA [2] (20 nM) it was 62%; in the data set on human Factor 11 mRNA [2] (60 nM) it was 88%; with human Factor 11 mRNA [2] (180 nM), 92%. Also, the “percent inhibition of Factor 11 mRNA relative to untreated control cells” value in the data set with human Factor 11 mRNA [3] (2.3 nM) came out at 28%; with human Factor 11 mRNA [3] (4.7 nM) it was 34%; with human Factor 11 mRNA [3] (9.4 nM), 50%; with human Factor 11 mRNA [3] (18.75 nM), 68%; with human Factor 11 mRNA [3] (37.5 nM), 82%; with human Factor 11 mRNA [3] (75 nM), 72%. The “Percent change: Body weight” value in data set [4] is −39%. Also, the “Percent change in organ weight: Kidney” value in data set [4] was “+32%”. The “Percent change in organ weight: Liver” value in data set [4] is “+38%”. Further, the “Percent change in organ weight: Spleen” value in data set [4] was “+151%”.

For the substance “416925 (antisense GGTGCACAGTTTCTGGCAGG; 3-14-3 gapmer chemistry, further chemistry not given here) [compound 416925]”, the values for the IC50 in the data set on human Factor 11 mRNA [1] and in the data set with human Factor 11 mRNA [3] were 0.013 µM and 0.012 µM, respectively. Moreover, the “percent inhibition of human Factor 11 mRNA relative to untreated control cells” value is listed as 24% with human Factor 11 mRNA [1] (2.34 nM); 34% in the data set with human Factor 11 mRNA [1] (4.69 nM); 45% in the data set on human Factor 11 mRNA [1] (9.375 nM); 56% with human Factor 11 mRNA [1] (18.75 nM); 67% with human Factor 11 mRNA [1] (37.5 nM); 72% with human Factor 11 mRNA [1] (75 nM). The “percent inhibition of human Factor 11 mRNA relative to untreated control cells” value in the data set on human Factor 11 mRNA [2] (0.74 nM) worked out at 0%; in the data set on human Factor 11 mRNA [2] (2.2 nM), 9%; in the data set on human Factor 11 mRNA [2] (6.7 nM), 1%; with human Factor 11 mRNA [2] (20 nM), 48%; in the data set with human Factor 11 mRNA [2] (60 nM), 55%; in the data set with human Factor 11 mRNA [2] (180 nM), 76%. Also, the “percent inhibition of Factor 11 mRNA relative to untreated control cells” value in the data set on human Factor 11 mRNA [3] (2.3 nM) was determined as 26%; in the data set with human Factor 11 mRNA [3] (4.7 nM), 33%; in the data set with human Factor 11 mRNA [3] (9.4 nM), 45%; in the data set on human Factor 11 mRNA [3] (18.75 nM), 59%; in the data set with human Factor 11 mRNA [3] (37.5 nM), 72%; in the data set on human Factor 11 mRNA [3] (75 nM), 60%. In addition, the “Percent change: Body weight” value in data set [4] is −32%. Further, the “Percent change in organ weight: Kidney” value in data set [4] was “+48%”. For the same substance, the “Percent change in organ weight: Liver” value in data set [4] is listed as “+44%”. The “Percent change in organ weight: Spleen” value in data set [4] was “+371%”.

As for “416999 (antisense GCACAGTTTCTGGCAGGCCT; 2-13-5 gapmer chemistry, further chemistry not given here) [compound 416999]”, the half-maximal inhibitory concentration (IC50) with human Factor 11 mRNA [1] was found to be 0.014 µM; with human Factor 11 mRNA [3], 0.012 µM. For the same substance, the “percent inhibition of human Factor 11 mRNA relative to untreated control cells” value in the data set on human Factor 11 mRNA [1] (2.34 nM) was 10%; with human Factor 11 mRNA [1] (4.69 nM), 26%; with human Factor 11 mRNA [1] (9.375 nM), 42%; in the data set with human Factor 11 mRNA [1] (18.75 nM) it was 62%; in the data set with human Factor 11 mRNA [1] (37.5 nM) it was 72%; in the data set with human Factor 11 mRNA [1] (75 nM), 80%. For the same substance, the “percent inhibition of human Factor 11 mRNA relative to untreated control cells” value in the data set on human Factor 11 mRNA [2] (0.74 nM) was determined as 3%; in the data set with human Factor 11 mRNA [2] (2.2 nM), 40%; in the data set with human Factor 11 mRNA [2] (6.7 nM) it was 36%; with human Factor 11 mRNA [2] (20 nM), 62%; with human Factor 11 mRNA [2] (60 nM), 67%; with human Factor 11 mRNA [2] (180 nM) it was 82%. Further, the “percent inhibition of Factor 11 mRNA relative to untreated control cells” value in the data set with human Factor 11 mRNA [3] (2.3 nM) turned out to be 19%; in the data set on human Factor 11 mRNA [3] (4.7 nM) it was 33%; in the data set on human Factor 11 mRNA [3] (9.4 nM), 42%; with human Factor 11 mRNA [3] (18.75 nM), 60%; in the data set with human Factor 11 mRNA [3] (37.5 nM), 71%; in the data set on human Factor 11 mRNA [3] (75 nM) it was 59%. Moreover, the “Percent change: Body weight” value in data set [4] was −37%. The “Percent change in organ weight: Kidney” value in data set [4] is “+71%”. Besides, in data set [4], the “Percent change in organ weight: Liver” value was “+51%”. Besides, the “Percent change in organ weight: Spleen” value in data set [4] was “+405%”.

“417002 (antisense GGTGCACAGTTTCTGGCAGG; 2-13-5 gapmer chemistry, further chemistry not given here) [compound 417002]”: the concentration for half-maximal inhibition (IC50) was determined as 0.012 µM with human Factor 11 mRNA [1] and 0.013 µM with human Factor 11 mRNA [3]. The “percent inhibition of human Factor 11 mRNA relative to untreated control cells” value came to 17% in the data set on human Factor 11 mRNA [1] (2.34 nM); 26% in the data set with human Factor 11 mRNA [1] (4.69 nM); 49% with human Factor 11 mRNA [1] (9.375 nM); 61% in the data set on human Factor 11 mRNA [1] (18.75 nM); 81% in the data set with human Factor 11 mRNA [1] (37.5 nM); 84% in the data set on human Factor 11 mRNA [1] (75 nM). The “percent inhibition of human Factor 11 mRNA relative to untreated control cells” value in the data set on human Factor 11 mRNA [2] (0.74 nM) is on record as 32%; in the data set with human Factor 11 mRNA [2] (2.2 nM), 16%; with human Factor 11 mRNA [2] (6.7 nM) it was 28%; in the data set with human Factor 11 mRNA [2] (20 nM), 38%; in the data set with human Factor 11 mRNA [2] (60 nM) it was 55%; in the data set on human Factor 11 mRNA [2] (180 nM), 71%. For the same substance, the “percent inhibition of Factor 11 mRNA relative to untreated control cells” value with human Factor 11 mRNA [3] (2.3 nM) worked out at 24%; in the data set on human Factor 11 mRNA [3] (4.7 nM), 30%; with human Factor 11 mRNA [3] (9.4 nM), 46%; in the data set on human Factor 11 mRNA [3] (18.75 nM), 57%; in the data set on human Factor 11 mRNA [3] (37.5 nM), 71%; in the data set on human Factor 11 mRNA [3] (75 nM), 65%. For the same substance, the “Percent change: Body weight” value in data set [4] is recorded as −29%. The “Percent change in organ weight: Kidney” value in data set [4] was “+63%”. In data set [4], the “Percent change in organ weight: Liver” value was “+27%”. Besides, in data set [4], the “Percent change in organ weight: Spleen” value is listed as “+446%”.
